Source: patent publication US6441038B1, “Treatment of fatigue, head injury and stroke” (Laxdale Limited, priority 1999, dated 2002)

How the values were obtained:
[1] = tested on: post-stroke depression and fatigue; assay: Case History No. 2: depression and fatigue after stroke; type: in vivo, human; conditions: person; antidepressant alone
[2] = tested on: brain lesions / LC function; conditions: animal studies, literature; cited from earlier work

SMILES | effect on post-stroke depression and fatigue [1] | effect on LC function and recovery of motor function after brain lesions [2]
CN(C)CCCN1c2ccccc2CCc2ccccc21 [imipramine] | without much success | –
CNCCC(Oc1ccc(C(F)(F)F)cc1)c1ccccc1 (stereo not shown) [fluoxetine] | without much success | –
CNCCCN1c2ccccc2CCc2ccccc21 [desipramine] | – | able to enhance
CN(CCCN1c2ccccc2CCc2ccccc21)CC(=O)c1ccc(Cl)cc1 [lofepramine] | without much success | –
